Measurements: patent publication US8153784B2, “Imaging of enzyme activity” (The General Hospital Corporation, priority 2004, dated 2012)

Tests used:
endogenous mouse MPO [1] = target: T1, endogenous mouse MPO (Mus musculus, UniProt P11247); experiment: LPS/Matrigel experiments, MR imaging; assay type: in vivo; settings: mice; LPS/Matrigel
T1 construct: endogenous in cells; host or cells: inflammatory cells recruited by LPS in C57BL6 male mice (Matrigel site in the thigh, or flank muscle myositis)
T1 sequence (P11247 139-718): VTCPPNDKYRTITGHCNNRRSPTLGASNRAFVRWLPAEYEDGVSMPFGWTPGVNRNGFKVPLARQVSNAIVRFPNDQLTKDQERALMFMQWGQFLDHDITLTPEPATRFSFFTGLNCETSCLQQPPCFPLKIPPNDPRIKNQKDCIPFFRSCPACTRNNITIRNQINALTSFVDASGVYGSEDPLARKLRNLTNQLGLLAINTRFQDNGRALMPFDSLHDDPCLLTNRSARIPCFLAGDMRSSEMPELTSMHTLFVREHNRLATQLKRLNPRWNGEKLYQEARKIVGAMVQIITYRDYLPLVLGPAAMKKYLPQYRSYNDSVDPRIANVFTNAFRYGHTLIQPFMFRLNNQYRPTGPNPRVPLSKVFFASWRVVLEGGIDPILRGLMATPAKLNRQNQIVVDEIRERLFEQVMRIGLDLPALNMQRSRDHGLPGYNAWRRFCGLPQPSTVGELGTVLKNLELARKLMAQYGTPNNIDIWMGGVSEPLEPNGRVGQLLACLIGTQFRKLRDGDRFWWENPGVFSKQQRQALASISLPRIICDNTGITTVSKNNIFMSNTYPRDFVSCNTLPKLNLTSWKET
Protocol: (§1) The MR imaging experiments were performed on a 1.5 T GE Excite scanner and a 4.7 T Bruker Pharmascan scanner. For all MR imaging experiments, precontrast T2-(TR=2000, TE=100, ETL=8, NEX=4, fast spin echo sequence) and T1-weighted images (TR=500, TE=11, NEX=4, spin echo sequence) with fat saturation were initially performed to locate the gels or area of inflammation. The substrates (0.3 mmol/kg) were subsequently injected via the tail vein of the mouse. The mouse was immediately imaged after the injection of the contrast agent using multiple T1-weighted sequences with fat saturation for at least 3 hours.
(§2) Ten-week old C57BL6 male mice were obtained from Jackson Laboratories. A total of 22 mice were used for the study. • 1. MPO/Matrigel imaging experiments: Matrigel™ (Beckton-Dickinson), a […] basement membrane matrix gel was used to immobilize human MPO and glucose oxidase (to supply H2O2 required for detecting MPO oxidative activity, Calbiochem). This was chosen to reflect deposits of human MPO in inflamed tissue in a mouse model. 400 μL of a mixture of Matrigel™ and MEM (Cambrex) was injected slowly into the thighs of each mouse one hour prior to imaging. The right thigh mixture also contained 15 U of MPO and 4 U of glucose oxidase (Calbiochem), while the left thigh mixture contained no enzyme and thus serves as an internal control. […]

[2] = target: T2, human MPO embedded in Matrigel (Homo sapiens, UniProt P05164); experiment: MPO/Matrigel implant mouse model, T1-weighted MR imaging; assay type: in vivo; settings: mice, right MPO/Matrigel vs left control, 1.5 T
T2 construct: purchased BioDesign, Inc
T2 sequence (P05164 49-745): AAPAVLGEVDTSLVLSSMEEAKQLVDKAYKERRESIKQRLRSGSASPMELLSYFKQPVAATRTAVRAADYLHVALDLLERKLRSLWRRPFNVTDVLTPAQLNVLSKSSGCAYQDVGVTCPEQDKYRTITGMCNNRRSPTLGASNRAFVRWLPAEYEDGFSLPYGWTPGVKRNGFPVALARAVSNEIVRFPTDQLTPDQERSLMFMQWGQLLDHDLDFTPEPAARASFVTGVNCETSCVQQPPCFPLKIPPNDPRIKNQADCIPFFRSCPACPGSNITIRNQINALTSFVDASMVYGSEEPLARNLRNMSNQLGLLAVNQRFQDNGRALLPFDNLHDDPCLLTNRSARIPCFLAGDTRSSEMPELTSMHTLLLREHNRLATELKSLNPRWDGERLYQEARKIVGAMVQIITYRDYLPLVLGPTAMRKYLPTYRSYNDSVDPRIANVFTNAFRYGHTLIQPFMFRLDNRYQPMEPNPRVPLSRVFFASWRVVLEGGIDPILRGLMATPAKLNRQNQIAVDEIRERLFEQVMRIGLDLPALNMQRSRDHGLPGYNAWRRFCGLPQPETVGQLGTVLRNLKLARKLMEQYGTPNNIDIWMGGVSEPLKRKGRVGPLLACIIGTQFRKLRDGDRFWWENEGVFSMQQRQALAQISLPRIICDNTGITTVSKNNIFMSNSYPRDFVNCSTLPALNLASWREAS
Protocol: To evaluate the monomeric substrates in vivo, we devised a mouse model that harbored 400 μL of Matrigel basement membrane matrix gel mixed 1:1 by volume with a solution containing 15 U of human MPO and glucose oxidase (as a source of hydrogen peroxide) that was injected into the right flank of the mouse. The left flank was injected with the enzyme-free Matrigel mixture. We subsequently performed T1-weighted MR imaging after the intravenous injection of Gd-DTPA-diSer substrate at the dose of […].
as §1
Ten-week old C57BL6 male mice were obtained from Jackson Laboratories. A total of 22 mice were used for the study. • 1. MPO/Matrigel imaging experiments: Matrigel™ (Beckton-Dickinson), a […] basement membrane matrix gel was used to immobilize human MPO and glucose oxidase (to supply H2O2 required for detecting MPO oxidative activity, Calbiochem). This was chosen to reflect deposits of human MPO in inflamed tissue in a mouse model. 400 μL of a mixture of Matrigel™ and MEM (Cambrex) was injected slowly into the thighs of each mouse one hour prior to imaging. The right thigh mixture also contained 15 U of MPO and 4 U of glucose oxidase (Calbiochem), while the left thigh mixture contained no enzyme and thus serves as an internal control. A total of 15 mice were used (3 mice each for 5-HT-DOTA(Gd), bis-5-HT-DTPA(Gd), bis-5-HT-DTPA-^111In, bis-tyramide-DTPA(Gd), and DTPA(Gd)). • 2. LPS/Matrigel experiments (n=3): This model was developed to induce endogeneous mouse MPO secretion and activation. 200 μL total volume Matrigel containing 10% heparin was injected slowly into the thighs of the mice 4 days prior to imaging. The right-sided mixture also contained E. coli lipopolysaccharide (LPS) at 10 μg/mL. One mouse was sacrificed for immunohistochemistry. • 3. Myositis experiments (n=4): LPS at 100 μg/mL in PBS was injected into each mouse intramuscularly in the right flank to produce myositis. The mice are imaged 24 hours after injection.
For normalized signal intensity measured on T1-weighted images, mean±standard deviation (SD) values were calculated in regions of interest (ROI). Contrast-to-noise (CNR) ratios were computed for each ROI according to the formula

endogenous mouse MPO [3] = target: T1, endogenous mouse MPO; experiment: LPS induced myositis, MR imaging at 4.7 T; assay type: in vivo; settings: mice with LPS induced myositis
Protocol: as §1, §2

MPO [4] = target: T3, MPO (Homo sapiens, UniProt P05164); experiment: Ga-3 as oxidoreductase reducing substrate, UV-visible spectra with MPO; assay type: biochemical
T3 sequence (P05164 49-745): T2 sequence (P05164 49-745)
Source text: (§3) Compound Ga-3 was further tested in vitro as an oxidoreductase reducing substrate. In a preliminary experiment, horseradish peroxidase (HRP), a model oxidoreductase, was used to test the possibility of enzyme-induced oligomerization. […] Well-defined aromatic band centered at 280 nm broadened over the reaction time and extended beyond 330 nm with some residual absorption in the region 350-500 nm. Extension towards the visible range is associated with the extension of the aromatic system as could be expected in the event of oligomerization. After 6 hours no change was observed and the reaction reaches levels close to 90% of conversion after approximately 2 hours. If MPO was used instead of HRP, the obtained results (see FIG. 20C) were similar.

[5] = target: T4, horseradish peroxidase (HRP) (Armoracia rusticana, UniProt P00433); experiment: Ga-3 as oxidoreductase reducing substrate, UV-visible spectra with HRP/H2O2; assay type: biochemical; parameters: purchased Sigma; settings: after approximately 2 hours
T4 sequence (P00433 31-338): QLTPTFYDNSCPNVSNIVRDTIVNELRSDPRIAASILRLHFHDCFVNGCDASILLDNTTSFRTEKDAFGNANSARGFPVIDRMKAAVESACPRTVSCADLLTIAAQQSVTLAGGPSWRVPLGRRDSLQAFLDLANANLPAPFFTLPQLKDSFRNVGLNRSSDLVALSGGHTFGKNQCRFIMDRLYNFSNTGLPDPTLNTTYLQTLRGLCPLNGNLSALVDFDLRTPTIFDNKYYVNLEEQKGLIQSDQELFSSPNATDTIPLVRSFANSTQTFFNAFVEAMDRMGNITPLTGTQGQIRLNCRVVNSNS
Source text: as §3

MPO [6] = target: T3, MPO; experiment: SPECT/CT imaging of MPO/Matrigel implants with 67Ga tracer; assay type: in vivo, mouse
Protocol: SPECT imaging and biodistribution: A solution of 80-100 μCi of [^67Ga]—I in 200 μl of saline were injected intravenously into mice prepared as follows: ten-week old C57BL6 male mice (Jackson Laboratories) were injected with 400 μL of a mixture of Matrigel™ (Beckton-Dickinson) and MEM (Cambrex) into the thighs of each mouse one hour prior to imaging. The right thigh mixture also contained 15 U of MPO and 4 μg of glucose oxidase (Calbiochem), while the left thigh mixture contained no enzyme to serve as an internal control. Glucose oxidase was included to ensure local generation of hydrogen peroxide. […] Six hours after injection, the animals were sacrificed and biodistribution was determined in major organs. The % dose accumulated per gram of major organs was determined by using a gamma counter.
To test our hypothesis in vivo, we prepared an inflammation model in mice. The model consisted in the subcutaneous implantation (1 hour before radiotracer injection) of Matrigel/MPO/GO mixture in the right thigh of each mouse. The left thigh mixture contained no enzyme and served as internal control. Matrigel is a basement membrane matrix gel that can be used for immobilizing human MPO and peroxide-generating enzyme. After injecting [^67Ga]—I intravenously, SPECT/CT imaging was performed 4 hours later.

[7] = Biodistribution of 67Ga tracer; assay type: in vivo, mouse; settings: mice n=4; 6 hours after the injection
Protocol: SPECT imaging and biodistribution: A solution of 80-100 μCi of [^67Ga]—I in 200 μl of saline were injected intravenously into mice prepared as follows: ten-week old C57BL6 male mice (Jackson Laboratories) were injected with 400 μL of a mixture of Matrigel™ (Beckton-Dickinson) and MEM (Cambrex) into the thighs of each mouse one hour prior to imaging. The right thigh mixture also contained 15 U of MPO and 4 μg of glucose oxidase (Calbiochem), while the left thigh mixture contained no enzyme to serve as an internal control. Glucose oxidase was included to ensure local generation of hydrogen peroxide. The animals were imaged 3 hours after injection on a high resolution X-SPECT/CT system (Gamma Medica). Six hours after injection, the animals were sacrificed and biodistribution was determined in major organs. The % dose accumulated per gram of major organs was determined by using a gamma counter.

SMILES: O=C([O-])CN(CCN(CC(=O)[O-])CC(=O)O)CCN(CC(=O)[O-])CC(=O)O.[Gd+3] [DTPA(Gd), reference compound]
- difference in enhancement LPS side vs control (endogenous mouse MPO [1]): no significant difference in enhancement
- enhancement of MPO implant compared with control implant [2]: no visual difference or CNR difference
- enhancement of MPO implant compared with control implant ([2]; listed as Magnevist): did not show any difference
- enhancement at 50 minutes after injection (endogenous mouse MPO [3]): significant wash-out of the enhancement

SMILES: CC(=O)N1CCCCCNC(=O)CCC(=O)N2CCCCCNC(=O)CCC(=O)N(CCCCCNC(=O)Cc3c[nH]c4ccc(O)cc34)[O][Ga]([O]1)[O]2 [Ga-3]
- result with MPO compared with HRP (MPO [4]): similar
- conversion [5]: ~90%

SMILES: CC(=O)N1CCCCCNC(=O)CCC(=O)N2CCCCCNC(=O)CCC(=O)N(CCCCCNC(=O)Cc3c[nH]c4ccc(O)cc34)[O][67Ga]([O]1)[O]2 [[^67Ga]-3]
- difference between right (MPO) and left (control) thigh (MPO [6]; mice, 6 hours after the injection): around 60%
- intensity of MPO implant vs control implant (MPO [6]; mouse SPECT/CT fusion images): higher intensity
- residual radioactivity in liver [7]: ~1.4%
- residual radioactivity in the bowel [7]: ~7.8%
- residual radioactivity in the rest of the organs [7]: below 0.5%
